For experiment [1], the target named is T1, mS29 (mitoribosomal small subunit) (Neurospora crassa, UniProt Q7SD06).
T1 construct: gene rsm23; native mS29 within the mtSSU of intact mitoribosomes purified from mycelia mitochondria; His-tag is on Oxa1 only
T1 sequence (Q7SD06 1-469): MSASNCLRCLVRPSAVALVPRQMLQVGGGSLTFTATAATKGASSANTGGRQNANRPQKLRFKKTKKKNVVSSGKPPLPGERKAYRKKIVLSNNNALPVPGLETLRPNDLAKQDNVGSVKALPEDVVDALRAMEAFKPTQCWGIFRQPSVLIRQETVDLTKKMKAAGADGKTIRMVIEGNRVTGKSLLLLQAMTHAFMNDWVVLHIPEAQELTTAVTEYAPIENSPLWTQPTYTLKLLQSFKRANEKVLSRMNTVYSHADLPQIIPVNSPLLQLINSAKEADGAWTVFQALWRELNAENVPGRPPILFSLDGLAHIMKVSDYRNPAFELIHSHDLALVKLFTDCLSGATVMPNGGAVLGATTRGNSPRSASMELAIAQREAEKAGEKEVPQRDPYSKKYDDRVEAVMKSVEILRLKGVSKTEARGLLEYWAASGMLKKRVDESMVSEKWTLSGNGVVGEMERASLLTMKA
The experiment is described as follows: cryo-EM structure. The note with it: co-purified endogenous nucleotide in P-loop pocket; assigned as ATP rather than GDP from density and chemical environment (Leu150); local resolution 2.77 A. The format is binding.

Experiment [2] concerns the target T2, pocket formed by mL40, uL5m, and rRNA H84-ES3 (central protuberance of mtLSU) (Neurospora crassa, UniProt Q1K6P0+V5IQE0).
T2 construct: gene mrpl28; native proteins within the mtLSU of intact mitoribosomes; site also formed by 23S rRNA (H84-ES3, A2755, U2759)
As to the kind of experiment: cryo-EM structure. Format: binding. The conditions noted are these: co-purified endogenous ligand; assignment 'most likely'; Arg295 of mL40 stacks on nicotinamide; rRNA part of site; oxidation state not stated.

T2 sequence (Q1K6P0 whole entry): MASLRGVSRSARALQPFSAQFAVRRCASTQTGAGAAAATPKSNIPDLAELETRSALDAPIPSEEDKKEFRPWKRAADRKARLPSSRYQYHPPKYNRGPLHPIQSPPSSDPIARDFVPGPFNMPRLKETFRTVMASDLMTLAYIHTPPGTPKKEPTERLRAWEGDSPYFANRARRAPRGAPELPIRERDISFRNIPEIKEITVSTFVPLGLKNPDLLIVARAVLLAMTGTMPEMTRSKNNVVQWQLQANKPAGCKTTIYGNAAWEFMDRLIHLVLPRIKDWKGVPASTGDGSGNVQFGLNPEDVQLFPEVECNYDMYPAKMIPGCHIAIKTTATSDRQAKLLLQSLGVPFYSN
T2 sequence (V5IQE0 whole entry): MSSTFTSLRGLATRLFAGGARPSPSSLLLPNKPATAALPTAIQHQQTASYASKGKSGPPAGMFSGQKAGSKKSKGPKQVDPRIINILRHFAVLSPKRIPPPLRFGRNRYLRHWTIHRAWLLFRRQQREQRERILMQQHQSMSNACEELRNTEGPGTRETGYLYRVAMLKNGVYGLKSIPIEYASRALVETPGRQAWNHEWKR

Consider `Nc1ncnc2c1ncn2[C@@H]1O[C@H](COP(=O)(O)OP(=O)(O)OP(=O)(O)O)[C@@H](O)[C@H]1O` [ATP], for which the cryo-EM structure entry in experiment [1] is reported as “the correct assignment for the nucleotide is adenosine triphosphate (ATP)”.
Regarding `NC(=O)c1ccc[n+]([C@@H]2O[C@H](COP(=O)([O-])OP(=O)(O)OC[C@H]3O[C@@H](n4cnc5c(N)ncnc54)[C@H](O)[C@@H]3O)[C@@H](O)[C@H]2O)c1` [NAD], in experiment [2], the cryo-EM structure result was “we conclude that it is most likely to be NAD”.

These data come from publication PMC7560712, “Analysis of translating mitoribosome reveals functional characteristics of translation in mitochondria of fungi” (Nature Communications, 2020).
